Target: T1, ARAF (Homo sapiens, UniProt P10398)
T1 construct: ARAF kinase reactions were rigorously the same with the exception that kinase concentration was raised to 3.75 nM (cat. No. 1768-0000-1; Reaction Biology)
T1 sequence (P10398 303-606 limits assumed): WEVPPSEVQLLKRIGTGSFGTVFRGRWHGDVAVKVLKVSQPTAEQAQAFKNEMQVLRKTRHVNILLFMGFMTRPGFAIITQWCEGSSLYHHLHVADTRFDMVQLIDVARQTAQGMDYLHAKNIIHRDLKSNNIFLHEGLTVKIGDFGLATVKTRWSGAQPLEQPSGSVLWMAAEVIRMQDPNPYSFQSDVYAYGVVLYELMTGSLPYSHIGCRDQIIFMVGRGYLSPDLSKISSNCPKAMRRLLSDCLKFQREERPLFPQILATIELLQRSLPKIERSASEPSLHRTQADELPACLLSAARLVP
Assay: ARAF kinase activity assay (AlphaLISA p-MEK 1/2)
Format: biochemical
Conditions: Table A; 10 μM ATP, kinase-dead MEK1 substrate
Experimental: Compound preparation: solid samples of each substance in 1dram vials were suspended in DMSO (Fisher Scientific) at a stock concentration of 20 mM. Stocks were kept at −20° C. and protected from light. If solubility of the compound at 20 mM appeared to be an issue, the initial concentration of the DMSO stock was changed to 10 mM or 5 mM.
In vitro enzymatic reactions were used for evaluating compounds intrinsic activity against BRAF, CRAF and ARAF. For BRAF and CRAF, 0.375 nM of purified GST-tagged kinases (cat. No. B4062-10UG and cat. No. R1656-10UG respectively from Millipore Sigma) were incubated with 75 nM of kinase-dead MEK1 substrate (cat. No. 40075; BPS Bioscience) in the presence of 10 μM of Ultrapure ATP (cat. No. V9102; Promega; part V915A) with and without the test compound in a buffer containing 50 mM HEPES pH 7.5, 10 mM MgCl2, 1 mM EDTA, 0.01% Brij-35 and 2 mM DTT. Separate reactions were performed with the MEK1 substrate and ATP as a blank control. ARAF kinase reactions were rigorously the same with the exception that kinase concentration was raised to 3.75 nM (cat. No. 1768-0000-1; Reaction Biology).
For compound treatment, 5 μL/well of test substance solution are placed in a 384-well proxyplate (Perkin Elmer) and mixed with 2× concentrated kinase reactions. The dilution series is selected so that nine concentrations cover a range from 100 nM to 0.01 nM. […] The final concentration of DMSO in the assay is set at 0.05%.
ARAF kinase reactions were carried out for a total of 2 hours at 30° C. and then stopped by addition of EDTA at a final concentration of 40 mM. Reactions were then detected using the AlphaLISA® SureFire® Ultra™ p-MEK 1/2 (Ser218/222) (PerkinElmer) kit. Reactions were performed with 5 μL of kinase reaction according to the manufacturer's specifications in 384-well proxyplates (Perkin Elmer) followed by overnight incubation of the AlphaLISA® reactions at room temperature in a humidified chamber. After completion of the detection reactions, the signals were recorded on a Synergy Neo2 plate reader (Biotek) equipped with AlphaLISA® filters. The effect of each compound dilution on the pMEK signal generated by ARAF reactions was expressed in % inhibition and calculated as follows. An internal 100% inhibition control (average of luminescence in kinase reactions comprising kinase dead MEK1 substrate alone) was included in each plate to measure of pMEK background and was subtracted from each data point. The average of DMSO (vehicle) controls (set as 0% inhibition) was also established and used to calculate % inhibition:
IC50 values were obtained by plotting the kinase inhibition values and fitting the dose-activity curves using a log(agonist) versus response—variable slope (four parameters) function using either GraphPadPrism (V7.0) or Dotmatics Screening Ultra platform. Standards included in the ARAF kinase assay were Belvarafenib (MedChem Express cat. No. HY-109080; CAS No. 1446113-23-0), LXH254 (MedChem Express cat. No. HY-112089; CAS No. 1800398-38-2) and BGB283 (cat. No. HY-18957; CAS No. 1446090-79-4).

Row | IC50 | Structure (SMILES)
1 | > 10 nM | O=C1CCc2c(Oc3ccc4c(c3)[C@@H]3[C@H](O4)[C@H]3c3nc4ccc(C(F)(F)F)cc4[nH]3)ccnc2N1 [BGB283]
2 | > 10 nM | Cc1ccc(NC(=O)c2ccnc(C(F)(F)F)c2)cc1-c1cc(OCCO)nc(N2CCOCC2)c1 [LXH254]

Reference: patent US20260137697A1, “THIAZOLO[5,4-D]PYRIMIDINE COMPOUNDS, COMPOSITIONS COMPRISING THEM AND USES THEREOF” (University de Montreal, priority 2022, published 2026)
